Results taken from patent US9521847B2, “Synergistic weed control from applications of pyridine carboxylic acid herbicides and synthetic auxin herbicides and/or auxin transport inhibitors” (Dow AgroSciences LLC, priority 2014, dated 2016).
Values joined by “and” are separate entries in the source; they are usually repeats but may differ in a detail not shown here. Equal entries are not always repeated. Where two headings read alike, the source gives them in different places.

Columns and labels:
[1] = tested on: poinsettia (Euphorbia heterophylla, EPHHL); test: Greenhouse postemergence trial, % visual injury
[2] = tested on: common lambsquarters (CHEAL, Chenopodium album L.); test: Greenhouse postemergence trial, % visual injury; type: in vivo; settings: for % visual injury, Obs: CHEAL
[3] = tested on: sunflower (Helianthus annus, HELAN); test: Greenhouse postemergence trial, % visual injury; type: in vivo; settings: for % visual injury, Obs: HELAN
[4] = tested on: rutabaga (Brassica napus var. napobrassica, BRSNA); test: Greenhouse postemergence trial, % visual injury; type: in vivo
[5] = tested on: winter rape (BRSNW, Brassica napus); test: Greenhouse postemergence trial, % visual injury; type: in vivo; settings: for % visual injury, Obs: BRSNW
[6] = tested on: wild pansy (Viola tricolor, VIOTR); test: Greenhouse postemergence trial, % visual injury; settings: for % visual injury, Obs: VIOTR
[7] = tested on: grain sorghum (Sorghum vulgare, SORVU); test: Greenhouse postemergence trial, % visual injury; type: in vivo
[8] = tested on: kochia (KCHSC, Kochia scoparia); test: Greenhouse postemergence trial, % visual injury; type: in vivo; settings: for % visual injury, Obs.: Table 60
Protocol: Following the protocol in Example 1, compound 1 and compound 2 were combined with 2,4 D EHE (EC) and applied to kochia (KCHSC, Kochia scoparia) and the phytotoxicity of the herbicidal compositions was measured.
Following the protocol in Example 1, compound 1 (EC) and Compound 2 (SC) were combined with diflufenzopyr and applied to kochia (Kochia scoparia, KCHSC) and the phytotoxicity of the herbicidal composition was measured.

[9] = tested on: soybean (Glycine max, GIAMA); test: Greenhouse postemergence trial, % visual injury; type: in vivo; settings: GLXMA
[10] = tested on: maize (ZEAMX); settings: maize (Zea mays), in vivo
[11] = tested on: wild buckwheat (Polygonum convolvulus, POLCO); test: Greenhouse postemergence trial, % visual injury; type: in vivo; settings: for % visual injury, Obs: POLCO
[12] = tested on: spring rape (Brassica napus, BRSNN); test: Greenhouse postemergence trial, % visual injury; settings: for plant injury at 5 g/ha: Brassica napus, post-emergence
[13] = tested on: velvetleaf (Abutilon theophrasti, ABUTH); test: Greenhouse postemergence trial, % visual injury; type: in vivo
[14] = tested on: pigweed (AMARE, Amaranthus retroflexus); test: Greenhouse postemergence trial, % visual injury; type: in vivo; settings: for % visual injury, Obs: AMARE
[15] = tested on: common rice (ORYSA); settings: in vivo
[16] = tested on: Canadian thistle (CIRAR, Cirsium arvense); test: Greenhouse postemergence trial, % visual injury; settings: for % visual injury, Obs: CIRAR; for pest or weed control at 5 g/ha: Cirsium arvense, post-emergence;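 for all read-outs here: plants sprayed at second to third true leaf stage, injury scored visually 20-22 d later against solvent-blank sprayed controls, 0 meaning no injury and 100 complete kill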
[17] = tested on: Russian thistle (Salsola iberica, SASKR); test: Greenhouse postemergence trial, % visual injury; type: in vivo
[18] = tested on: spring barley (HORVS); settings: in vivo; for % visual injury (Obs): Hordeum vulgare (spring barley)
[19] = tested on: common chickweed (Stellaria media, STEME); test: Greenhouse postemergence trial, % visual injury; type: in vivo; settings: for % visual injury, Obs: STEME
[20] = tested on: ivyleaf morningglory (Ipomoea hederacea, IPOHE); test: Greenhouse postemergence trial, % visual injury
[21] = tested on: nutsedge (Cyperus esculentus, CYPES); test: Greenhouse postemergence trial, % visual injury; type: in vivo
[22] = tested on: wild mustard (Sinapis arvensis, SINAR); test: Greenhouse postemergence trial, % visual injury; type: in vivo
[23] = tested on: Chinese kale (Brassica alboglabra, BRSAG); test: Greenhouse postemergence trial, % visual injury; type: in vivo; settings: for % visual injury, Obs: BRSAG, compound 1 (EC) 5 g ae/ha
[24] = compound 1 (EC) 5 g ae/ha, Table 62
[25] = compound 1 (EC) 5 g ae/ha, Table 63
[26] = 5 g ae/ha alone (compound 1 as EC), 20-22 d
[27] = read-out: % visual injury (Obs)

Compound: Nc1c(F)c(-c2ccc3cc[nH]c3c2F)nc(C(=O)O)c1Cl [compound 1]
- pest or weed control at 5 g/ha ([1]; Euphorbia heterophylla, post-emergence, read-out: % visual injury, Obs, EPHHL, 5 g ae/ha): 95%
- pest or weed control at 10 g/ha ([1]; Euphorbia heterophylla, post-emergence, read-out: % visual injury, Obs, EPHHL, 10 g ae/ha): 97%
- % visual injury (Obs) ([1]; compound 1 (EC) 5 g ae/ha): 95%
- % visual injury, Obs ([2]; 5 g ae/ha): 90%
- % visual injury, Obs ([2]; 10 g ae/ha): 100%
- % visual injury (Obs) ([2]; compound 1 (EC) 5 g ae/ha): 80%
- % visual injury, Obs ([3]; 5 g ae/ha): 80%
- % visual injury, Obs [3, 24]: 70%
- % visual injury, Obs [3, 25]: 70%
- % visual injury (Obs) ([3]; compound 1 (EC) 5 g ae/ha): 80%
- % visual injury Obs [4, 26]: 65%
- % visual injury, Obs ([4]; BRSNA, compound 1 (EC) 5 g ae/ha, Table 63): 65%
- % visual injury, Obs ([5]; 5 g ae/ha): 40%
- % visual injury, Obs ([5]; 10 g ae/ha): 45%
- % visual injury, Obs [5, 24]: 30%
- % visual injury, Obs [5, 25]: 50%
- % visual injury (Obs) ([5]; compound 1 (EC) 5 g ae/ha): 40% and 70%
- % visual injury (Obs) ([5]; compound 1 (EC) 10 g ae/ha): 100% and 80%
- % visual injury (Obs) ([5]; compound 1 SC 5 g ae/ha): 30%
- % visual injury (Obs) ([5]; compound 1 SC 10 g ae/ha): 60%
- % visual injury, Obs ([6]; 10 g ae/ha): 10%
- % visual injury, Obs [6, 24]: 5%
- % visual injury, Obs [6, 25]: 5%
- pest or weed control at 5 g/ha ([6]; Viola tricolor, post-emergence, read-out: % visual injury Obs): 25%
- % visual injury (Obs) ([6]; compound 1 (EC) 5 g ae/ha): 10%
- % visual injury (Obs) ([6]; compound 1 SC 2.5 g ae/ha): 13%
- % visual injury (Obs) ([6]; compound 1 SC 5 g ae/ha): 23%
- % visual injury Obs ([7]; 5 g ae/ha alone, 20-22 d): 13%
- % visual injury, Obs ([7]; SORVU, 10 g ae/ha): 50%
- % visual injury (Obs) ([7]; compound 1 (EC) 5 g ae/ha): 30%
- % visual injury Obs ([8]; 8.75 g ae/ha alone, 20-22 d): 43%
- pest or weed control at 5 g/ha ([8]; Bassia scoparia, post-emergence, KCHSC, 5 g ae/ha, read-out: % visual injury, Obs): 65%
- pest or weed control at 10 g/ha ([8]; Bassia scoparia, post-emergence, KCHSC, 10 g ae/ha, read-out: % visual injury, Obs): 60%
- % visual injury, Obs. ([8]; KCHSC, compound 1 (EC) 8.75 g ae/ha): 78%
- % visual injury, Obs. ([8]; KCHSC, compound 1 (EC) 17.5 g ae/ha): 80%
- % visual injury (Obs) ([8]; compound 1 (EC) 5 g ae/ha): 65%
- % visual injury (Obs) ([8]; compound 1 SC 5 g ae/ha): 75%
- % visual injury (Obs) ([8]; compound 1 SC 10 g ae/ha): 100%
- % visual injury, Obs ([9]; 5 g ae/ha): 95%
- % visual injury, Obs ([9]; 10 g ae/ha): 100%
- % visual injury (Obs) [10]: 5%
- % visual injury, Obs ([11]; 10 g ae/ha): 30%
- % visual injury, Obs [11, 24]: 65%
- % visual injury, Obs [11, 25]: 65%
- % visual injury (Obs) ([11]; compound 1 SC 10 g ae/ha): 30% and 40%
- % visual injury, Obs ([12]; BRSNN, compound 1 (EC) 5 g ae/ha, Table 62): 50%
- plant injury at 5 g/ha [12, 27]: 50%
- plant injury at 5 g/ha ([12]; read-out: % visual injury Obs): 60%
- plant injury at 5 g/ha ([12]; read-out: % visual injury, Obs): 50%
- pest or weed control at 5 g/ha ([13]; Abutilon theophrasti, post-emergence, ABUTH, 5 g ae/ha, read-out: % visual injury, Obs): 70%
- pest or weed control at 10 g/ha ([13]; Abutilon theophrasti, post-emergence, ABUTH, 10 g ae/ha, read-out: % visual injury, Obs): 60%
- pest or weed control at 5 g/ha ([13]; Abutilon theophrasti, post-emergence, ABUTH, compound 1 (EC) 5 g ae/ha, Table 62, read-out: % visual injury, Obs): 60%
- pest or weed control at 5 g/ha ([13]; Abutilon theophrasti, post-emergence, ABUTH, compound 1 (EC) 5 g ae/ha, Table 63, read-out: % visual injury, Obs): 60%
- % visual injury (Obs) ([13]; compound 1 (EC) 5 g ae/ha): 70%
- % visual injury, Obs ([14]; 5 g ae/ha): 75%
- % visual injury, Obs ([14]; 10 g ae/ha): 97%
- % visual injury (Obs) ([14]; compound 1 (EC) 5 g ae/ha): 70%
- % visual injury (Obs) ([14]; compound 1 (EC) 10 g ae/ha): 85%
- % visual injury (Obs) ([14]; compound 1 SC 5 g ae/ha): 70%
- % visual injury (Obs) ([14]; compound 1 SC 10 g ae/ha): 85%
- % visual injury (Obs) [15]: 0%
- % visual injury, Obs ([16]; 5 g ae/ha): 10%
- % visual injury, Obs [16, 25]: 10%
- pest or weed control at 5 g/ha [16, 27]: 10%
- pest or weed control at 5 g/ha ([16]; read-out: % visual injury Obs): 20%
- % visual injury (Obs) ([16]; compound 1 (EC) 5 g ae/ha): 10%
- % visual injury (Obs) ([17]; compound 1 (EC) 10 g ae/ha): 65% and 60%
- % visual injury (Obs) ([17]; compound 1 SC 5 g ae/ha): 65%
- % visual injury (Obs) ([17]; compound 1 SC 10 g ae/ha): 80%
- % visual injury (Obs) [18]: 0%
- % visual injury (Obs) ([18]; sc): 0%
- % visual injury, Obs ([18]; spring barley (Hordeum vulgare)): 0%
- % visual injury, Obs ([19]; 5 g ae/ha): 60% and 70%
- % visual injury, Obs ([19]; 10 g ae/ha): 70%
- % visual injury (Obs) ([19]; compound 1 (EC) 5 g ae/ha): 60%
- pest or weed control at 5 g/ha ([20]; Ipomoea, post-emergence, read-out: % visual injury, Obs, IPOHE, 5 g ae/ha): 20%
- pest or weed control at 10 g/ha ([20]; Ipomoea, post-emergence, read-out: % visual injury, Obs, IPOHE, 10 g ae/ha): 10%
- % visual injury (Obs) ([20]; compound 1 (EC) 5 g ae/ha): 20%
- % visual injury, Obs ([21]; CYPES, 5 g ae/ha): 30%
- pest or weed control at 5 g/ha ([21]; Cyperus, post-emergence, 5 g ae/ha alone, 20-22 d, read-out: % visual injury Obs): 25%
- % visual injury (Obs) ([21]; compound 1 (EC) 5 g ae/ha): 30%
- % visual injury (Obs) ([22]; compound 1 (EC) 5 g ae/ha): 100% and 95%
- % visual injury (Obs) ([22]; compound 1 (EC) 10 g ae/ha): 100%
- % visual injury (Obs) ([22]; compound 1 SC 5 g ae/ha): 100%
- % visual injury (Obs) ([22]; compound 1 SC 10 g ae/ha): 80%
- % visual injury Obs [23, 26]: 15%
- % visual injury, Obs ([23]; Table 62): 15%
- % visual injury, Obs ([23]; Table 63): 15%
